Measurements as given in PubChem BioAssay (NCI).
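1) Cells in 96-well plates. 2) Compound, 48 h, 5 concentrations. 3) Linear interpolation between surrounding doses. 4) Unreached endpoint = highest concentration. GI50 is the concentration that inhibits growth by half. TGI: total growth inhibition.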

Assays:
Assay in all cases: DTP human tumour cell line panel, 48 h
OVCAR-5 ovarian = test system: OVCAR-5 ovarian
A549 NSCLC = test system: A549 NSCLC
SF-539 CNS = test system: SF-539 CNS
NCI-H23 lung = test system: NCI-H23 lung
COLO 205 colon = test system: COLO 205 colon
HL-60(TB) leukemia = test system: HL-60(TB) leukemia
T-47D breast = test system: T-47D breast
SF-295 CNS = test system: SF-295 CNS
NCI-H226 lung = test system: NCI-H226 lung
HCT-116 colon = test system: HCT-116 colon
MALME-3M melanoma = test system: MALME-3M melanoma
SK-MEL-5 melanoma = test system: SK-MEL-5 melanoma
SN12C renal = test system: SN12C renal
MDA-N = test system: MDA-N
SK-MEL-28 melanoma = test system: SK-MEL-28 melanoma
SNB-19 CNS = test system: SNB-19 CNS
U251 CNS = test system: U251 CNS
ACHN renal = test system: ACHN renal
A498 renal = test system: A498 renal
IGROV1 ovarian = test system: IGROV1 ovarian
HS 578T breast = test system: HS 578T breast
OVCAR-8 ovarian = test system: OVCAR-8 ovarian
HOP-92 NSCLC = test system: HOP-92 NSCLC
OVCAR-4 ovarian = test system: OVCAR-4 ovarian
MCF7 breast = test system: MCF7 breast
CCRF-CEM leukemia = test system: CCRF-CEM leukemia
K-562 leukemia = test system: K-562 leukemia
KM12 colon = test system: KM12 colon
UO-31 renal = test system: UO-31 renal
HT29 colon = test system: HT29 colon
SK-OV-3 ovarian = test system: SK-OV-3 ovarian
UACC-257 melanoma = test system: UACC-257 melanoma
NCI-H522 lung = test system: NCI-H522 lung
EKVX NSCLC = test system: EKVX NSCLC
NCI/ADR-RES ovarian = test system: NCI/ADR-RES ovarian
NCI-H460 lung = test system: NCI-H460 lung
SF-268 CNS = test system: SF-268 CNS
OVCAR-3 ovarian = test system: OVCAR-3 ovarian
DU-145 prostate = test system: DU-145 prostate
MDA-MB-231 breast = test system: MDA-MB-231 breast
MOLT-4 leukemia = test system: MOLT-4 leukemia
SK-MEL-2 melanoma = test system: SK-MEL-2 melanoma
786-0 renal = test system: 786-0 renal
BT-549 breast = test system: BT-549 breast
HOP-62 NSCLC = test system: HOP-62 NSCLC
TK-10 renal = test system: TK-10 renal
PC-3 prostate = test system: PC-3 prostate
SW-620 colon = test system: SW-620 colon
M14 melanoma = test system: M14 melanoma
UACC-62 melanoma = test system: UACC-62 melanoma
MDA-MB-435 = test system: MDA-MB-435
CAKI-1 renal = test system: CAKI-1 renal
LOX IMVI melanoma = test system: LOX IMVI melanoma
HCC-2998 colon = test system: HCC-2998 colon
SNB-75 CNS = test system: SNB-75 CNS
RPMI-8226 leukemia = test system: RPMI-8226 leukemia
HCT-15 colon = test system: HCT-15 colon

## O=c1cc(-c2ccc3ccccc3c2)[nH]c2ncc(Cl)cc12
OVCAR-5 ovarian
  TGI: > 100 µM
A549 NSCLC
  TGI: > 100 µM
SF-539 CNS
  TGI: 56.5 µM
NCI-H23 lung
  TGI: 57 µM
COLO 205 colon
  TGI: 21.8 µM
HL-60(TB) leukemia
  GI50: 1.78 µM
  TGI: 3.96 µM
T-47D breast
  TGI: > 100 µM
SF-295 CNS
  GI50: 5.44 µM
  TGI: 29 µM
NCI-H226 lung
  TGI: > 100 µM
HCT-116 colon
  GI50: 3.98 µM
  TGI: > 100 µM
MALME-3M melanoma
  TGI: 44.1 µM
SK-MEL-5 melanoma
  GI50: 2.98 µM
  TGI: > 100 µM
SN12C renal
  TGI: > 100 µM
MDA-N
  GI50: 1.55 µM
  TGI: 5.45 µM
SK-MEL-28 melanoma
  TGI: > 100 µM
SNB-19 CNS
  TGI: 51.2 µM
U251 CNS
  GI50: 4.74 µM
  TGI: 46.1 µM
ACHN renal
  TGI: > 100 µM
A498 renal
  TGI: 43.1 µM
IGROV1 ovarian
  TGI: > 100 µM
HS 578T breast
  TGI: 70.8 µM
OVCAR-8 ovarian
  TGI: 22.9 µM
HOP-92 NSCLC
  TGI: 38.1 µM
OVCAR-4 ovarian
  TGI: > 100 µM
MCF7 breast
  TGI: > 100 µM
CCRF-CEM leukemia
  TGI: 56.8 µM
K-562 leukemia
  TGI: > 100 µM
KM12 colon
  TGI: > 100 µM
UO-31 renal
  TGI: > 100 µM
HT29 colon
  TGI: > 100 µM
SK-OV-3 ovarian
  TGI: 34.4 µM
UACC-257 melanoma
  TGI: > 100 µM
NCI-H522 lung
  TGI: 36.8 µM
EKVX NSCLC
  TGI: > 100 µM
NCI/ADR-RES ovarian
  TGI: > 100 µM
NCI-H460 lung
  GI50: 4.12 µM
  TGI: > 100 µM
SF-268 CNS
  TGI: 34.4 µM
OVCAR-3 ovarian
  GI50: 2.65 µM
  TGI: 7.81 µM
DU-145 prostate
  TGI: > 100 µM
MDA-MB-231 breast
  TGI: 56.2 µM
MOLT-4 leukemia
  TGI: > 100 µM
SK-MEL-2 melanoma
  TGI: 45.1 µM
786-0 renal
  TGI: 16.8 µM
BT-549 breast
  TGI: > 100 µM
HOP-62 NSCLC
  TGI: 29.6 µM
TK-10 renal
  TGI: 45.6 µM
PC-3 prostate
  GI50: 3.1 µM
  TGI: 29.1 µM
SW-620 colon
  TGI: > 100 µM
M14 melanoma
  TGI: > 100 µM
UACC-62 melanoma
  TGI: > 100 µM
MDA-MB-435
  GI50: 0.846 µM
  TGI: 2.76 µM
CAKI-1 renal
  GI50: 7.58 µM
  TGI: > 100 µM
LOX IMVI melanoma
  TGI: > 100 µM
HCC-2998 colon
  TGI: > 100 µM
SNB-75 CNS
  TGI: 9.96 µM
RPMI-8226 leukemia
  TGI: 24.5 µM
HCT-15 colon
  TGI: > 100 µM
